{
  "source": "patent US20130189382A1",
  "about": "“Use of fucoxanthin in the preparation of product for improving memory and having neuroprotective effect associated with neurodegenerative disorder” (Beijing Gingko Group Biological Technology Co., Ltd., priority 2010, published 2013)",
  "key": {"[1]": {"tested_on": "rat brain cortical neurons induced by Aβ25-35", "experiment": "Neuron morphological detection by Hoechst/PI double staining", "assay_type": "cell-based", "conditions": "compared with model group, FIG. 1", "procedure": "The anti-AD activity of fucoxanthin is evaluated by detecting indexes including cell survival rate (MTT), cytomorphology, SOD, GSH-PX, T-AOC and MDA etc. SOD plays an important role in the balance between oxidation and anti-oxidization of organisms. The enzyme is able to remove superoxide anion free radicals and protect cells from damage, and the activity of the enzyme indirectly reflects the ability of organisms to remove ROS. GSH-PX, which is an important enzyme for catalyzing the decomposition of hydrogen peroxide in the body, is able to protect the integrity of cellular membrane structures and functions. The T-AOC can be measured to evaluate the antioxidant capacity of the total anti-oxidant substances in a system. The quantity of MDA reflects the degree of lipid peroxidation in organisms and may indirectly reflect the damage level of cells attacked by free radicals. Hoechst/Propidium Iodide (PI) double staining is applied to cell morphological observation: both PI and Hoechst33342 can bonde with cell nuclear Deoxyribonucleic Acid (DNA) (or Ribonucleic Acid (RNA)). However, PI fails to get through normal cellular membranes while Hoechst is a membrane-permeable fluorescent dye. Therefore, necrotic cells or cells whose cellular membranes are damaged during late apoptosis are stained red by PI while normal cells and cells in early apoptosis or mid-apoptosis are stained blue by Hoechst. However, nucleolus of apoptotic cell present a bright blue color due to concentration. Normal cells (blue), apoptotic cells (bright blue) and necrotic cells (red) can be distinguished according to different colors. However, the accompanying drawings in the specification are colorless, thus the colors are replaced by hollow rounds (blue), grey rounds (bright blue) and black rounds (red). […] Other detection indexes: […] […]"}, "[2]": {"tested_on": "rat brain cortical neurons induced by Aβ25-35", "experiment": "MDA content in culture medium of neurons damaged by Aβ25-35", "assay_type": "cell-based", "source_text": "Aβ25-35 and MTT, purchased from Sigma Company; T-AOC assay kit, MDA assay kit, GSH-PX assay kit and SOD assay kit, purchased from Nanjing Jiancheng Bioengineering Institute; and cell apoptosis fluorescent Hoechst33342/PI double staining reagent kit purchased from Nanjing KeyGEN Biotech Co., Ltd. […] Other detection indexes: […] Three experiments of different samples were repeated to detect each index of this experiment (except the Hoechst/PI double staining experiment and the experiment of cell morphological observation), and all results are obtained via the results of three experiments by using statistical analysis. ROS is generated by organisms through the enzyme system and the non-enzyme system and the ROS is able to attack polyunsaturated fatty acids in biological membranes, and initiate lipid peroxidation to form lipid peroxides, such as MDA. Therefore, the amount of MDA can reflect the degree of lipid peroxidation in organisms, thereby indirectly reflecting the damage degree of cells attacked by free radicals. […] The Fx-powder can reduce the MDA content in the culture medium of the damaged neurons remarkably and is dose-dependent, and the protective effect of the Fx-powder increases with the increase of drug concentrations. The Fx-oil also has such effect to protect neurons from oxidative damage and is not evidently dose-dependent. The reference substance A presents certain protective effect at a low dose, but the effect is seemingly reversed at medium and high doses, along with an increase in the MDA content. However, there is no statistical difference compared with the model group."}, "[3]": {"tested_on": "rat brain cortical neurons induced by Aβ25-35", "experiment": "SOD activity in culture medium of neurons damaged by Aβ25-35", "assay_type": "cell-based", "source_text": "Aβ25-35 and MTT, purchased from Sigma Company; T-AOC assay kit, MDA assay kit, GSH-PX assay kit and SOD assay kit, purchased from Nanjing Jiancheng Bioengineering Institute; and cell apoptosis fluorescent Hoechst33342/PI double staining reagent kit purchased from Nanjing KeyGEN Biotech Co., Ltd. […] Other detection indexes: […] Three experiments of different samples were repeated to detect each index of this experiment (except the Hoechst/PI double staining experiment and the experiment of cell morphological observation), and all results are obtained via the results of three experiments by using statistical analysis. The SOD activity can reflect ability of organisms to remove ROS indirectly. The influence of the reference substance A (A) and the coarse extracts thereof FX-01 powder (Fx-powder) and Fx-01 oil (Fx-oil) on the SOD activity in the culture medium of the rat brain cortical neuron model induced by Aβ25-35 is detected and the result is as shown in Table 2. […] The SOD activity is improved with the increase of drug concentrations."}, "[4]": {"tested_on": "memory acquisition of mice", "experiment": "Step-through test, memory acquisition of mice", "assay_type": "in vivo", "conditions": "0.42 mg/kg·bw for 30 days", "procedure": "(§1) 1.1 Material: pure fucoxanthin prepared by our company, and the recommended daily intake for a mouse is equal to the daily dose 4 mg of the human body, male Kuming mice, 6 to 8 weeks old, bodyweight ranging from 18 to 22 g.\n(§2) 1.2 dose and group: take the daily dose, i.e. 4 mg of fucoxanthin of the human body as a dose group, turn the dose into the daily dose of the mice, and set a blank control group.\n1.52 Step-through test: the selection of animals, the grouping in the test, the doses for the tested objects, the administration methods and the administration time are the same as those in the step-down test, and step-through training was conducted after administering the samples continuously for 30 days. During the experiment, make the mice face back to the entrance of a bright room and put the mice into the bright room, start a timer, the animals passed through the entrance, entered the […] and received electric shocks, stop the timer, take out the mice and record the time needed for each mouse to be put into the bright room and enter a dark room to receive the electric shocks, i.e. the latency, repeat the test 24 hours later at the same time, and record the latency for each mouse to enter the dark room, the number of errors within 5 minutes, and the number of animals that entered the dark room.\n(§3) 1.6 Data processing: process the obtained data by utilizing an SPSS1010 statistic software package and employ analysis of variance and X^2 test in the statistic method. […]"}, "[5]": {"tested_on": "rat brain cortical neurons induced by Aβ25-35", "experiment": "Cell survival rate by MTT method in neurons damaged by Aβ25-35", "assay_type": "cell-based", "conditions": "control = 100%", "from_the_text": "1) kill zero to four-day old neonatal rats, immerse the rats in 75% alcohol for 2 to 3 seconds, put the rats in a sterile culture dish, take their brains, and place the brains in a sterile culture dish containing cold D-Hanks liquid, remove meninges and blood vessels, and isolate the cerebral cortex.\n2) place the isolated tissues in a sterile culture dish containing a proper amount of 0.125% trypsin solution, cutting up the tissues into a size of about 0.5 mm*0.5 mm*0.5 mm, and place them for 5 minutes at room temperature.\n3) transfer the tissue blocks to a 15 ml centrifugal tube, add a proper amount of DMEM-F12 culture medium containing 10% bovine serum to terminate digestion, blow gently with a bend suction pipe to obtain a single cell suspension.\n4) filter the cells with a 400-mesh cell strainer.\n5) perform centrifugation at 1000 rpm for 5 minutes, discard the supernatant, add a D-Hanks liquid to wash the cells, perform centrifugation at 1000 rpm for 5 minutes and discard the supernatant.\n6) add a proper amount of DMEM-F12 culture medium containing 10% bovine serum, count the cells, according to a concentration of 1*10^5 cells/ml, inoculate cells in a 96-pore plate or a 24-pore plate, which applied with 10 μg/ml of polylysine as a basic layer, place the plate in a CO2 incubator and culture at 37 °C in a CO2 concentration of 5%.\n7) 24 hours later, replace the culture medium with a DMEM-F12 culture medium containing 5 mg/L cytarabine and 10% bovine serum; 24 hours later, replace the culture medium with a DMEM-F12 culture medium containing 2% B-27 and 10% bovine serum; replace the culture medium with a DMEM-F12 culture medium containing 2% B-27 and 10% bovine serum every 2 days subsequently to change the solution.\nA total of 8 experiment groups are set for cell survival rate detection, including a normal control group, a model group, 5 medicament groups of different concentrations (drug concentrations (the drug concentrations described herein refer to the dry weight of fucoxanthin): 0.39, 0.78, 1.56, 3.12 and 6.25 μg/ml) and a medicament control group (6.25 μg/ml). Other detection indexes: SOD, GSH-PX, T-AOC, MDA and cell morphological observation in which 5 experimental groups are set in total, including a normal control group, a model group and 3 medicament groups of different concentrations (drug concentrations: 0.39, 0.78 and 1.56 μg/ml).\nTake cells cultured for 7 days, administer corresponding concentrations of the drug to the medicament groups, add an equal amount of a corresponding solvent to the control group and the model group, incubate for 16 hours, treat groups besides the control group with 5 μM of Aβ25-35 (pre-aged for 7 days at 37□) for 24 hours, take the cell culture medium to detect the T-AOC, the SOD, the MDA and the GSH-PX subsequently, and measure the cell survival rate by MTT method or perform morphological observation with a Hoechst/PI double staining experiment.\nDetermination of the cell survival rate by MTT method: culture the cells in a 96-pore plate, administer the drug to protect the cells for 16 hours, after damaging the cells by Aβ25-35 for 24 hours, add 5 mg/ml of MTT to the culture medium, continue to culture for 4 hours, terminate the culture, remove the culture medium through careful suction, add 200 μl of dimethyl sulfoxide to each pore, measure the absorbance of each pore at Optical Density (OD) 490 nm with an enzyme-labeled instrument after the crystals are completely dissolved and calculate the cell survival rate by taking the control group as 100%."}, "[6]": {"tested_on": "memory acquisition of mice", "experiment": "Step-down test, memory acquisition of mice", "assay_type": "in vivo", "conditions": "0.42 mg/kg·bw by lavage for 30 days", "procedure": "as §1, §2\n1.51 Step-down test: select 20 male mice with a bodyweight of 18 to 22 g, randomly divide the mice into a blank control group and a medication group, administer fucoxanthin to the medication group by lavage, conduct step-down training to the mice after administering the sample to the mice continuously for 30 days, put the animals in a reaction tank for adaption for 3 minutes, introduce a 36V alternating current, and the normal reaction of the animals was to jump back to the insulated platform quickly. Most of the animals might jump onto the copper grids again or jump onto the copper grids for multiple times, and jump back onto the platform after receiving electric shocks. After training once, the animals were placed on the platform in the reaction tank, record the number of electric shocks (number of errors) received by each mouse within 5 minutes as the learning performance, retest 24 hours later, and record the number of animals that received the electric shocks, the latency for the animals to step down the platform for the first time, and number of errors within 3 minutes.\nas §3"}, "[7]": {"tested_on": "rat brain cortical neurons induced by Aβ25-35", "experiment": "GSH-PX activity in culture medium of neurons damaged by Aβ25-35", "assay_type": "cell-based", "source_text": "Aβ25-35 and MTT, purchased from Sigma Company; T-AOC assay kit, MDA assay kit, GSH-PX assay kit and SOD assay kit, purchased from Nanjing Jiancheng Bioengineering Institute; and cell apoptosis fluorescent Hoechst33342/PI double staining reagent kit purchased from Nanjing KeyGEN Biotech Co., Ltd. […] Other detection indexes: […] Three experiments of different samples were repeated to detect each index of this experiment (except the Hoechst/PI double staining experiment and the experiment of cell morphological observation), and all results are obtained via the results of three experiments by using statistical analysis. Detect the influence of the reference substance A (A) and the coarse extracts thereof FX-01 powder (Fx-powder) and Fx-01 oil (Fx-oil) on the GSH-PX activity in the culture medium of the rat brain cortical neuron model induced by Aβ25-35, and the result is as shown in Table 3."}, "[8]": {"tested_on": "rat brain cortical neurons induced by Aβ25-35", "experiment": "T-AOC in culture medium of neurons damaged by Aβ25-35", "assay_type": "cell-based", "source_text": "Aβ25-35 and MTT, purchased from Sigma Company; T-AOC assay kit, MDA assay kit, GSH-PX assay kit and SOD assay kit, purchased from Nanjing Jiancheng Bioengineering Institute; and cell apoptosis fluorescent Hoechst33342/PI double staining reagent kit purchased from Nanjing KeyGEN Biotech Co., Ltd. […] Other detection indexes: […] Three experiments of different samples were repeated to detect each index of this experiment (except the Hoechst/PI double staining experiment and the experiment of cell morphological observation), and all results are obtained via the results of three experiments by using statistical analysis. The T-AOC can be measured to evaluate the antioxidant capacity of the total antioxidant substances in the system. […] The protective effect of the Fx-powder is improved with the increase of the drug concentrations. However, A and the Fx-oil are not dose-dependent although they can improve the T-AOC."}, "rat embryo neuron": {"tested_on": "rat embryo neuron", "conditions": "literature 2001-335480A published in Japan; cited from earlier work"}},
  "note": "Marks after values point to notes of the source that are not given here.",
  "data": [
    {"compound": "CC(=O)O[C@H]1CC(C)(C)C(=C=C/C(C)=C/C=C/C(C)=C/C=C/C=C(C)/C=C/C=C(\\C)C(=O)C[C@@]23O[C@]2(C)C[C@@H](O)CC3(C)C)[C@](C)(O)C1", "note": "[A, fucoxanthin]", "values": [
      {"measurement": "Morphological detection: apoptotic and necrotic cells", "setting": "[1]; 0.39 μg/ml", "value": "slight decrease in the necrotic cells"},
      {"measurement": "Morphological detection: apoptotic and necrotic cells", "setting": "[1]; 0.78 μg/ml", "value": "The apoptotic cells and the necrotic cells decrease"},
      {"measurement": "Morphological detection: apoptotic and necrotic cells", "setting": "[1]; 1.56 μg/ml", "value": "The apoptotic cells and the necrotic cells decrease"},
      {"measurement": "MDA", "setting": "[2]; 0.39 μg/ml", "value": "5.12 ± 1.17", "unit": "µmol/mL"},
      {"measurement": "MDA", "setting": "[2]; 0.78 μg/ml", "value": "14.62 ± 3.82", "unit": "µmol/mL"},
      {"measurement": "MDA", "setting": "[2]; 1.56 μg/ml", "value": "12.34 ± 1.58", "unit": "µmol/mL"},
      {"measurement": "SOD (U/ml)", "setting": "[3]; 0.39 μg/ml", "value": "15.38 ± 0.71", "unit": "U/ml"},
      {"measurement": "SOD (U/ml)", "setting": "[3]; 0.78 μg/ml", "value": "15.72 ± 0.87", "unit": "U/ml"},
      {"measurement": "SOD (U/ml)", "setting": "[3]; 1.56 μg/ml", "value": "15.77 ± 0.83", "unit": "U/ml"},
      {"measurement": "Error response rate (%)", "setting": "[4]", "value": "50** %"},
      {"measurement": "Latency (seconds) Training", "setting": "[4]", "value": "40.2 ± 6.5", "unit": "s"},
      {"measurement": "Latency (seconds) Test", "setting": "[4]; test 24 h later", "value": "240.4 ± 43.2", "unit": "s"},
      {"measurement": "Number of errors Test", "setting": "[4]; within 5 minutes", "value": "0.4 ± 0.3"},
      {"measurement": "Cell survival rate (%)", "setting": "[5]; 0.39 μg/ml, drug 16 h then 5 μM Aβ25-35 24 h", "value": "98.45 ± 15.89", "unit": "%"},
      {"measurement": "Cell survival rate (%)", "setting": "[5]; 0.78 μg/ml, drug 16 h then 5 μM Aβ25-35 24 h", "value": "92.36 ± 17.79", "unit": "%"},
      {"measurement": "Cell survival rate (%)", "setting": "[5]; 1.56 μg/ml, drug 16 h then 5 μM Aβ25-35 24 h", "value": "98.99 ± 9.52", "unit": "%"},
      {"measurement": "Cell survival rate (%)", "setting": "[5]; 3.12 μg/ml, drug 16 h then 5 μM Aβ25-35 24 h", "value": "100.98 ± 8.74", "unit": "%"},
      {"measurement": "Cell survival rate (%)", "setting": "[5]; 6.25 μg/ml, drug 16 h then 5 μM Aβ25-35 24 h", "value": "103.31 ± 11.93", "unit": "%"},
      {"measurement": "Cell survival rate (%)", "setting": "[5]; medicament control group (6.25 μg/ml)", "value": "104.47 ± 20.70", "unit": "%"},
      {"measurement": "Error response rate (%) Training", "setting": "[6]", "value": 100, "unit": "%"},
      {"measurement": "Error response rate (%) Test", "setting": "[6]; retest 24 h later", "value": 50, "unit": "%"},
      {"measurement": "Latency Test", "setting": "[6]; retest 24 h later", "value": "136.2 ± 25.6", "unit": "s"},
      {"measurement": "Number of errors Test", "setting": "[6]; retest 24 h later, within 3 minutes", "value": "0.3 ± 0.31"},
      {"measurement": "Number of errors Training", "setting": "[6]; within 5 minutes", "value": "1.1 ± 0.56"},
      {"measurement": "GSH-PX (U/ml)", "setting": "[7]; 0.39 μg/ml", "value": "38.17 ± 6.84", "unit": "U/ml"},
      {"measurement": "GSH-PX (U/ml)", "setting": "[7]; 0.78 μg/ml", "value": "61.50 ± 51.62", "unit": "U/ml"},
      {"measurement": "GSH-PX (U/ml)", "setting": "[7]; 1.56 μg/ml", "value": "34.00 ± 5.29", "unit": "U/ml"},
      {"measurement": "T-AOC (U/ml)", "setting": "[8]; 0.39 μg/ml", "value": "1.50 ± 0.54", "unit": "U/ml"},
      {"measurement": "T-AOC (U/ml)", "setting": "[8]; 0.78 μg/ml", "value": "1.26 ± 0.37", "unit": "U/ml"},
      {"measurement": "T-AOC (U/ml)", "setting": "[8]; 1.56 μg/ml", "value": "1.12 ± 0.13", "unit": "U/ml"},
      {"measurement": "Effect on rat embryo neuron injuries caused by cerebral ischemia-reperfusion", "setting": "rat embryo neuron", "value": "can inhibit rat embryo neuron injuries caused by cerebral ischemia-reperfusion"}
    ]}
  ]
}
